Results reported in patent publication US12570642B2, “GLP-IR modulating compounds” (Gilead Sciences, Inc., priority 2021, dated 2026).

Molecular target: GLP-1R (Homo sapiens, UniProt P43220)
Assay: GLP-1R Activation - cAMP Assay
Format: cell-based
Conditions: cAMP increase in CHO cells stably expressing GLP-1R; each compound run on one of the two cAMP assays (Assay 1 or Assay 2, not specified)
How it was run: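 CHO cells stably expressing GLP-1R, plated at 1,000 cells/well overnight, then equilibrated 1 h in HBSS with 20 mM Hepes and 0.1% BSA. Agonist added as 10-point dose response for 30 min at 37 °C. cAMP measured by HTRF (Cisbio Gs Dynamic kit); EC50 from sigmoidal fit.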

Chain of GLP-1R (P43220 24-463): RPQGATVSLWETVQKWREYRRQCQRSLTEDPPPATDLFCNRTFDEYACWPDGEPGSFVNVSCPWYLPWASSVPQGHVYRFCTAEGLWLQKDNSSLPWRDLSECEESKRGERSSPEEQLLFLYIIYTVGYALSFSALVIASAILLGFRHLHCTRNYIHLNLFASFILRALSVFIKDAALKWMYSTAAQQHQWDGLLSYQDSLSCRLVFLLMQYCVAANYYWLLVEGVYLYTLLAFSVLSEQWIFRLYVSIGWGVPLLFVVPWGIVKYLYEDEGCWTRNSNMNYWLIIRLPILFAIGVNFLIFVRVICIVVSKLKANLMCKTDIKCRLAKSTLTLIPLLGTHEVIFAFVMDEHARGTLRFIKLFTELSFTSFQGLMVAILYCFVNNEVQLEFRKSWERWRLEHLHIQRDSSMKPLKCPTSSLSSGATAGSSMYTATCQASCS

SMILES	EC50 [nM]
Cn1nnc2ccc(COc3cccc(-c4cc(F)c(Cc5nc6ccc(C(=O)O)cc6n5[C@@H]5COCC5(C)C)cc4F)n3)cc21 [Example 513, (S)-2-(2,5-difluoro-4-(6-((1-methyl-1H-benzo[d][1,2,3]triazol-6-yl)methoxy)pyridin-2-yl)benzyl)-1-(4,4-dimethyltetrahydrofuran-3-yl)-1H-benzo[d]imidazole-6-carboxylic acid]	0.208
CO[C@@H](C)Cn1c(Cc2cc(F)c(-c3cccc(OCc4ccc(C#N)cc4F)n3)cc2F)nc2c(F)cc(C(=O)O)cc21 [Example 518, (S)-2-(4-(6-((4-cyano-2-fluorobenzyl)oxy)pyridin-2-yl)-2,5-difluorobenzyl)-4-fluoro-1-(2-methoxypropyl)-1H-benzo[d]imidazole-6-carboxylic acid]	0.887
O=C(O)c1ccc2nc(Cc3cc(F)c(-c4cccc(OCc5ccc6c(c5)CN(C(=O)C5CC5)C6)n4)cc3F)n(C[C@@H]3CCO3)c2c1 [Example 520, (S)-2-(4-(6-((2-(cyclopropanecarbonyl)isoindolin-5-yl)methoxy)pyridin-2-yl)-2,5-difluorobenzyl)-1-(oxetan-2-ylmethyl)-1H-benzo[d]imidazole-6-carboxylic acid]	0.27
Cn1nnc2cc(COc3cccc(-c4cc(F)c(Cc5nc6ccc(C(=O)O)cc6n5C[C@@H]5CCO5)cc4F)n3)ccc21 [Example 523, (S)-2-(2,5-difluoro-4-(6-((1-methyl-1H-benzo[d][1,2,3]triazol-5-yl)methoxy)pyridin-2-yl)benzyl)-1-(oxetan-2-ylmethyl)-1H-benzo[d]imidazole-6-carboxylic acid]	0.362
Cn1ncc2ccc(COc3cccc(-c4cc(F)c(Cc5nc6ccc(C(=O)O)cc6n5C[C@@H]5CCO5)cc4F)n3)cc21 [Example 524, (S)-2-(2,5-difluoro-4-(6-((1-methyl-1H-indazol-6-yl)methoxy)pyridin-2-yl)benzyl)-1-(oxetan-2-ylmethyl)-1H-benzo[d]imidazole-6-carboxylic acid]	0.605
Cn1nnc2ccc(COc3cccc(-c4cc(F)c(Cc5nc6ccc(C(=O)O)cc6n5C[C@@H]5CCO5)cc4F)n3)cc21 [Example 525, (S)-2-(2,5-difluoro-4-(6-((1-methyl-1H-benzo[d][1,2,3]triazol-6-yl)methoxy)pyridin-2-yl)benzyl)-1-(oxetan-2-ylmethyl)-1H-benzo[d]imidazole-6-carboxylic acid]	0.429
Cn1ncc2cc(COc3cccc(-c4cc(F)c(Cc5nc6ccc(C(=O)O)cc6n5C[C@@H]5CCO5)cc4F)n3)ccc21 [Example 526, (S)-2-(2,5-difluoro-4-(6-((1-methyl-1H-indazol-5-yl)methoxy)pyridin-2-yl)benzyl)-1-(oxetan-2-ylmethyl)-1H-benzo[d]imidazole-6-carboxylic acid]	0.509
COC(=O)N1Cc2ccc(COc3cccc(-c4cc(F)c(Cc5nc6ccc(C(=O)O)cc6n5[C@@H]5COCC5(C)C)cc4F)n3)cc2C1 [Example 529, (S)-2-(2,5-difluoro-4-(6-((2-(methoxycarbonyl)isoindolin-5-yl)methoxy)pyridin-2-yl)benzyl)-1-(4,4-dimethyltetrahydrofuran-3-yl)-1H-benzo[d]imidazole-6-carboxylic acid]	0.598
O=C(O)c1ccc2nc(Cc3cc(F)c(-c4cccc(OCc5ccc6ncsc6c5)n4)cc3F)n(C[C@@H]3CCO3)c2c1 [Example 530, (S)-2-(4-(6-(benzo[d]thiazol-6-ylmethoxy)pyridin-2-yl)-2,5-difluorobenzyl)-1-(oxetan-2-ylmethyl)-1H-benzo[d]imidazole-6-carboxylic acid]	0.392
Cn1c(=O)sc2cc(COc3cccc(-c4cc(F)c(Cc5nc6ccc(C(=O)O)cc6n5C[C@@H]5CCO5)cc4F)n3)ccc21 [Example 531, (S)-2-(2,5-difluoro-4-(6-((3-methyl-2-oxo-2,3-dihydrobenzo[d]thiazol-6-yl)methoxy)pyridin-2-yl)benzyl)-1-(oxetan-2-ylmethyl)-1H-benzo[d]imidazole-6-carboxylic acid]	0.396
COC(=O)c1ccc2nc(Cc3cc(F)c(-c4cccc(OCc5ccc(Cl)cc5F)n4)cc3F)n([C@@H]3COCC3(C)C)c2c1 [Example 532, (S)-methyl 2-(4-(6-((4-chloro-2-fluorobenzyl)oxy)pyridin-2-yl)-2,5-difluorobenzyl)-1-(4,4-dimethyltetrahydrofuran-3-yl)-1H-benzo[d]imidazole-6-carboxylate]	3680
CO[C@H]1COC[C@H]1n1c(Cc2cc(F)c(-c3cccc(OCc4ccc(Cl)cc4F)n3)cc2F)nc2ccc(C(=O)O)cc21 [Example 533, 2-(4-(6-((4-chloro-2-fluorobenzyl)oxy)pyridin-2-yl)-2,5-difluorobenzyl)-1-((3R,4R)-4-methoxytetrahydrofuran-3-yl)-1H-benzo[d]imidazole-6-carboxylic acid]	0.5
CO[C@H]1COC[C@H]1n1c(Cc2cc(F)c(-c3ccc(F)c(OCc4ccc(Cl)cc4F)n3)cc2F)nc2ccc(C(=O)O)cc21 [Example 534, 2-(4-(6-((4-chloro-2-fluorobenzyl)oxy)-5-fluoropyridin-2-yl)-2,5-difluorobenzyl)-1-((3R,4R)-4-methoxytetrahydrofuran-3-yl)-1H-benzo[d]imidazole-6-carboxylic acid]	0.353

Stronger by EC50, values ahead:

EC50 [nM]	SMILES
0.152	COCCn1c(Cc2cc(F)c(-c3cccc(OCc4ccc5c(c4)CN(S(C)(=O)=O)C5)n3)cc2F)nc2c(F)cc(C(=O)O)cc21 [Example 514, 2-(2,5-difluoro-4-(6-((2-(methylsulfonyl)isoindolin-5-yl)methoxy)pyridin-2-yl)benzyl)-4-fluoro-1-(2-methoxyethyl)-1H-benzo[d]imidazole-6-carboxylic acid]
0.074	COC(=O)N1Cc2ccc(COc3nc(-c4cc(F)c(Cc5nc6c(F)cc(C(=O)O)cc6n5C[C@@H]5CCO5)cc4F)ccc3F)cc2C1 [Example 515, (S)-2-(2,5-difluoro-4-(5-fluoro-6-((2-(methoxycarbonyl)isoindolin-5-yl)methoxy)pyridin-2-yl)benzyl)-4-fluoro-1-(oxetan-2-ylmethyl)-1H-benzo[d]imidazole-6-carboxylic acid]
0.088	COC(=O)N1Cc2ccc(COc3nc(-c4cc(F)c(Cc5nc6ccc(C(=O)O)cc6n5C[C@@H]5CCO5)cc4F)ccc3F)cc2C1 [Example 516, (S)-2-(2,5-difluoro-4-(5-fluoro-6-((2-(methoxycarbonyl)isoindolin-5-yl)methoxy)pyridin-2-yl)benzyl)-1-(oxetan-2-ylmethyl)-1H-benzo[d]imidazole-6-carboxylic acid]
0.024	CS(=O)(=O)N1Cc2ccc(COc3cccc(-c4cc(F)c(Cc5nc6c(F)cc(C(=O)O)cc6n5C[C@@H]5CCO5)cc4F)n3)cc2C1 [Example 517, (S)-2-(2,5-difluoro-4-(6-((2-(methylsulfonyl)isoindolin-5-yl)methoxy)pyridin-2-yl)benzyl)-4-fluoro-1-(oxetan-2-ylmethyl)-1H-benzo[d]imidazole-6-carboxylic acid]
0.102	CS(=O)(=O)N1Cc2ccc(COc3cccc(-c4cc(F)c(Cc5nc6ccc(C(=O)O)cc6n5C[C@@H]5CCO5)cc4F)n3)cc2C1 [Example 519, (S)-2-(2,5-difluoro-4-(6-((2-(methylsulfonyl)isoindolin-5-yl)methoxy)pyridin-2-yl)benzyl)-1-(oxetan-2-ylmethyl)-1H-benzo[d]imidazole-6-carboxylic acid]
0.111	COC(=O)N1Cc2ccc(COc3cccc(-c4cc(F)c(Cc5nc6ccc(C(=O)O)cc6n5C[C@@H]5CCO5)cc4F)n3)cc2C1 [Example 521, (S)-2-(2,5-difluoro-4-(6-((2-(methoxycarbonyl)isoindolin-5-yl)methoxy)pyridin-2-yl)benzyl)-1-(oxetan-2-ylmethyl)-1H-benzo[d]imidazole-6-carboxylic acid]
0.165	CC(=O)N1Cc2ccc(COc3cccc(-c4cc(F)c(Cc5nc6ccc(C(=O)O)cc6n5C[C@@H]5CCO5)cc4F)n3)cc2C1 [Example 522, (S)-2-(4-(6-((2-acetylisoindolin-5-yl)methoxy)pyridin-2-yl)-2,5-difluorobenzyl)-1-(oxetan-2-ylmethyl)-1H-benzo[d]imidazole-6-carboxylic acid]
0.184	O=C(O)c1ccc2nc(Cc3cc(F)c(-c4cccc(OCc5ccc6nsnc6c5)n4)cc3F)n(C[C@@H]3CCO3)c2c1 [Example 527, (S)-2-(4-(6-(benzo[c][1,2,5]thiadiazol-5-ylmethoxy)pyridin-2-yl)-2,5-difluorobenzyl)-1-(oxetan-2-ylmethyl)-1H-benzo[d]imidazole-6-carboxylic acid]
0.047	CC1(C)COC[C@H]1n1c(Cc2cc(F)c(-c3cccc(OCc4cnc(-n5ccnn5)cc4Cl)n3)cc2F)nc2c(Cl)cc(C(=O)O)cc21 [Example 528, (S)-4-chloro-2-(4-(6-((4-chloro-6-(1H-1,2,3-triazol-1-yl)pyridin-3-yl)methoxy)pyridin-2-yl)-2,5-difluorobenzyl)-1-(4,4-dimethyltetrahydrofuran-3-yl)-1H-benzo[d]imidazole-6-carboxylic acid]
0.099	Cn1cc(-c2ccc(COc3cccc(-c4cc(F)c(Cc5nc6ccc(C(=O)O)cc6n5[C@@H]5COCC5(C)C)cc4F)n3)c(F)c2)cn1 [Example 535, (S)-2-(2,5-difluoro-4-(6-((2-fluoro-4-(1-methyl-1H-pyrazol-4-yl)benzyl)oxy)pyridin-2-yl)benzyl)-1-(4,4-dimethyltetrahydrofuran-3-yl)-1H-benzo[d]imidazole-6-carboxylic acid]
0.083	CC1(C)COC[C@H]1n1c(Cc2cc(F)c(-c3ccc(F)c(OCc4ccc(C(F)(F)F)cc4)n3)cc2F)nc2ccc(C(=O)O)cc21 [Example 536, (S)-2-(2,5-difluoro-4-(5-fluoro-6-((4-(trifluoromethyl)benzyl)oxy)pyridin-2-yl)benzyl)-1-(4,4-dimethyltetrahydrofuran-3-yl)-1H-benzo[d]imidazole-6-carboxylic acid]
